The values that follow are results of earlier work, collected in article PMC4297300, “Different binding motifs of the celiac disease-associated HLA molecules DQ2.5, DQ2.2, and DQ7.5 revealed by relative quantitative proteomics of endogenous peptide repertoires” (Immunogenetics, 2014).

The target in this series is DQ2.2. Particulars: ref Bodd et al. [2012]; cited from earlier work. An excerpt: The risk for celiac disease associated with DQ2.5 and DQ2.2 is remarkably different (Margaritte-Jeannin et al. [2004]; Sollid and Lie [2005]). Studying gluten-reactive T cells from DQ2.5 celiac patients with antigen-presenting cells expressing DQ2.5 or DQ2.2, reactivity to all gluten epitopes defined by DQ2.5 restricted T cells were observed albeit with small quantitative differences (Qiao et al. [2005]; Vader et al. [2003]). It was only when antigen presenting cells were pulsed with antigen and incubated for extended time before mixing with T cells that qualitative differences were observed s ...

With PFSEQEQPV [DQ2.2-glut-L1], the “Kinetic stability of binding to DQ2.2” value was “high kinetic stability”.
